Measurements as given in patent US11179397B2, “Imidazopyrimidine derivatives” (Gilead Sciences, Inc., priority 2018, dated 2021).

Assays:
[1] = target: SHP-2 full length protein (Homo sapiens (Human), UniProt Q06124); assay: SHP-2 biochemical DiFMUP pseudosubstrate-fluorogenic assay; details: 0.2 nM SHP-2, 1 μM IRS-1 activator peptide, 50 μM DiFMUP; read-out: SHP2 IC50
Outline: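 In-house recombinant full-length SHP-2 preincubated 90 min at room temperature with compounds (1:3 series, 10,000–0.005 nM), then DiFMUP substrate added at 50 μM final for 30 min more. Fluorescence normalised to DMSO wells (100%) and IC50 derived by curve fitting.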

NCI-H358 cells = assay: NCI-H358 3D tumor spheroid growth inhibition; type: cell-based; details: Homo sapiens, NCI-H358, 168 h, 3D spheroids, 7 days, 3D CellTiter Glo; cellular IC50 designated EC50; read-out: H358 EC50
Outline: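 Cells seeded at 1000/well in ultra-low-attachment plates at 37 °C, 5% CO2 to form spheroids, then incubated a further 7 days with compounds. Viability by 3D CellTiter Glo luminescence; % inhibition versus DMSO wells, with normalized cellular IC50 reported as EC50.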

| IC50 [1] [nM] | EC50 (NCI-H358 cells) [nM] | SMILES |
| --- | --- | --- |
| 28 | 270 | Cc1nccc(Sc2cnc(N3CCC4(CCC[C@H]4N)CC3)n3ccnc23)c1C [Example 80, (R)-8-(8-((2,3-dimethylpyridin-4-yl)thio)imidazo[1,2-c]pyrimidin-5-yl)-8-azaspiro[4.5]decan-1-amine] |
| 7.2 | 82 | Cc1c(Sc2cnc(N3CCC4(CCC[C@H]4N)CC3)n3ccnc23)ccnc1Cl [Example 81, (R)-8-(8-((2-chloro-3-methylpyridin-4-yl)thio)imidazo[1,2-c]pyrimidin-5-yl)-8-azaspiro[4.5]decan-1-amine] |
| 11 | 125 | N[C@@H]1CCCC12CCN(c1ncc(Sc3ccnc4c3CCCC4)c3nccn13)CC2 [Example 82, (R)-8-(8-((5,6,7,8-tetrahydroquinolin-4-yl)thio)imidazo[1,2-c]pyrimidin-5-yl)-8-azaspiro[4.5]decan-1-amine] |
| 150 | > 12500 | N[C@@H]1CCCC12CCN(c1ncc(Sc3cccn4cnnc34)c3nccn13)CC2 [Example 83, (R)-8-(8-([1,2,4]triazolo[4,3-a]pyridin-8-ylthio)imidazo[1,2-c]pyrimidin-5-yl)-8-azaspiro[4.5]decan-1-amine] |
| 2.1 | 11 | N[C@@H]1c2ccccc2CC12CCN(c1ncc(Sc3cccc(Cl)c3Cl)c3nccn13)CC2 [Example 85, (S)-1′-(8-((2,3-dichlorophenyl)thio)imidazo[1,2-c]pyrimidin-5-yl)-1,3-dihydrospiro[indene-2,4′-piperidin]-1-amine] |
| 250 | 350 | N[C@H]1c2ccccc2CC12CCN(c1ncc(Sc3cccc(Cl)c3Cl)c3nccn13)CC2 [Example 86, (R)-1′-(8-((2,3-dichlorophenyl)thio)imidazo[1,2-c]pyrimidin-5-yl)-1,3-dihydrospiro[indene-2,4′-piperidin]-1-amine] |
| 18 | 160 | N#Cc1cccc2c(Sc3cnc(N4CCC5(CCC[C@H]5N)CC4)n4ccnc34)ccnc12 [Example 88, (R)-4-((5-(1-amino-8-azaspiro[4.5]decan-8-yl)imidazo[1,2-c]pyrimidin-8-yl)thio)quinoline-8-carbonitrile] |
| > 10000 | > 12500 | N[C@@H]1CCCC12CCN(c1ncc(Sc3cc(=O)[nH]c4ccccc34)c3nccn13)CC2 [Example 89, (R)-4-((5-(1-amino-8-azaspiro[4.5]decan-8-yl)imidazo[1,2-c]pyrimidin-8-yl)thio)quinolin-2(1H)-one] |
| 37 | 410 | N[C@@H]1CCCC12CCN(c1ncc(Sc3ccnc4ncccc34)c3nccn13)CC2 [Example 90, (R)-8-(8-((1,8-naphthyridin-4-yl)thio)imidazo[1,2-c]pyrimidin-5-yl)-8-azaspiro[4.5]decan-1-amine] |
| 170 | 2000 | C[C@H](N)C1CCN(c2ncc(Sc3cccc(Cl)c3Cl)c3nccn23)CC1 [Example 91, (S)-1-(1-(8-((2,3-dichlorophenyl)thio)imidazo[1,2-c]pyrimidin-5-yl)piperidin-4-yl)ethan-1-amine] |
| > 10000 | > 12500 | C[C@@H]1OCC2(CCN(c3ncc(Sc4cc(=O)n(C)c5ccccc45)c4nccn34)CC2)[C@@H]1N [Example 92, 4-((5-((3S,4S)-4-amino-3-methyl-2-oxa-8-azaspiro[4.5]decan-8-yl)imidazo[1,2-c]pyrimidin-8-yl)thio)-1-methylquinolin-2(1H)-one] |
| 480 | > 12500 | C[C@@H]1OCC2(CCN(c3ncc(Sc4cncc5ccccc45)c4nccn34)CC2)[C@@H]1N [Example 93, (3S,4S)-3-methyl-8-(8-(isoquinolin-4-ylthio)imidazo[1,2-c]pyrimidin-5-yl)-2-oxa-8-azaspiro[4.5]decan-4-amine] |
| 170 | 1000 | C[C@@H](N)C1CCN(c2ncc(Sc3cccc(Cl)c3Cl)c3nccn23)CC1 [Example 94, (R)-1-(1-(8-((2,3-dichlorophenyl)thio)imidazo[1,2-c]pyrimidin-5-yl)piperidin-4-yl)ethan-1-amine] |
| 5.2 | 95 | C[C@@H]1OCC2(CCN(c3ncc(Sc4cccc5ncsc45)c4nccn34)CC2)[C@@H]1N [Example 95, (3S,4S)-8-(8-(benzo[d]thiazol-7-ylthio)imidazo[1,2-c]pyrimidin-5-yl)-3-methyl-2-oxa-8-azaspiro[4.5]decan-4-amine] |
| 4.1 | 97 | C[C@@H]1OCC2(CCN(c3ncc(Sc4cccc5c(C=O)csc45)c4nccn34)CC2)[C@@H]1N [Example 96, 7-((5-((3S,4S)-4-amino-3-methyl-2-oxa-8-azaspiro[4.5]decan-8-yl)imidazo[1,2-c]pyrimidin-8-yl)thio)benzo[b]thiophene-3-carbaldehyde] |
| 11 | 110 | C[C@@H]1OCC2(CCN(c3ncc(Sc4ccnc5c4CCC5)c4nccn34)CC2)[C@@H]1N [Example 97, (3S,4S)-8-(8-((6,7-dihydro-5H-cyclopenta[b]pyridin-4-yl)thio)imidazo[1,2-c]pyrimidin-5-yl)-3-methyl-2-oxa-8-azaspiro[4.5]decan-4-amine] |
| 16 | 250 | C[C@@H]1OCC2(CCN(c3ncc(Sc4cccn5nccc45)c4nccn34)CC2)[C@@H]1N [Example 98, (3S,4S)-3-methyl-8-(8-(pyrazolo[1,5-a]pyridin-4-ylthio)imidazo[1,2-c]pyrimidin-5-yl)-2-oxa-8-azaspiro[4.5]decan-4-amine] |
| 4.1 | 96 | C[C@@H]1OCC2(CCN(c3ncc(Sc4cccc5ccsc45)c4nccn34)CC2)[C@@H]1N [Example 99, (3S,4S)-8-(8-(benzo[b]thiophen-7-ylthio)imidazo[1,2-c]pyrimidin-5-yl)-3-methyl-2-oxa-8-azaspiro[4.5]decan-4-amine] |
| 6.7 | 140 | C[C@@H]1OCC2(CCN(c3ncc(Sc4cccc5nc(N)sc45)c4nccn34)CC2)[C@@H]1N [Example 100, (3S,4S)-8-(8-((2-aminobenzo[d]thiazol-7-yl)thio)imidazo[1,2-c]pyrimidin-5-yl)-3-methyl-2-oxa-8-azaspiro[4.5]decan-4-amine] |
| 5.7 | 84 | CSc1ccccc1Sc1cnc(N2CCC3(CC2)CO[C@@H](C)[C@H]3N)n2ccnc12 [Example 101, (3S,4S)-3-methyl-8-(8-((2-(methylthio)phenyl)thio)imidazo[1,2-c]pyrimidin-5-yl)-2-oxa-8-azaspiro[4.5]decan-4-amine] |
| 4 | 66 | C[C@@H]1OCC2(CCN(c3ncc(Sc4ccnc5sccc45)c4nccn34)CC2)[C@@H]1N [Example 102, (3S,4S)-3-methyl-8-(8-(thieno[2,3-b]pyridin-4-ylthio)imidazo[1,2-c]pyrimidin-5-yl)-2-oxa-8-azaspiro[4.5]decan-4-amine] |
| 4.6 | 150 | C[C@@H]1OCC2(CCN(c3ncc(Sc4ccnc5c(Br)cccc45)c4nccn34)CC2)[C@@H]1N [Example 103] |
| 4.2 | 74 | C[C@@H]1OCC2(CCN(c3ncc(Sc4ccnc5c(N)cccc45)c4nccn34)CC2)[C@@H]1N [Example 104, (3S,4S)-8-(8-((8-aminoquinolin-4-yl)thio)imidazo[1,2-c]pyrimidin-5-yl)-3-methyl-2-oxa-8-azaspiro[4.5]decan-4-amine] |
| 82 | 760 | COC(=O)c1cccc2c(Sc3cnc(N4CCC5(CC4)CO[C@@H](C)[C@H]5N)n4ccnc34)ccnc12 [Example 105, methyl 4-((5-((3S,4S)-4-amino-3-methyl-2-oxa-8-azaspiro[4.5]decan-8-yl)imidazo[1,2-c]pyrimidin-8-yl)thio)quinoline-8-carboxylate] |
| 4.2 | 39 | C[C@@H]1OCC2(CCN(c3ncc(Sc4ccnc5ccsc45)c4nccn34)CC2)[C@@H]1N [Example 106, (3S,4S)-3-methyl-8-(8-(thieno[3,2-b]pyridin-7-ylthio)imidazo[1,2-c]pyrimidin-5-yl)-2-oxa-8-azaspiro[4.5]decan-4-amine] |
| 3.7 | 64 | C[C@@H]1OCC2(CCN(c3ncc(Sc4cccc5cnsc45)c4nccn34)CC2)[C@@H]1N [Example 107, (3S,4S)-8-(8-(benzo[d]isothiazol-7-ylthio)imidazo[1,2-c]pyrimidin-5-yl)-3-methyl-2-oxa-8-azaspiro[4.5]decan-4-amine] |
| 3.3 | 87 | CSc1c(Cl)cccc1Sc1cnc(N2CCC3(CC2)CO[C@@H](C)[C@H]3N)n2ccnc12 [Example 108, (3S,4S)-8-(8-((3-chloro-2-(methylthio)phenyl)thio)imidazo[1,2-c]pyrimidin-5-yl)-3-methyl-2-oxa-8-azaspiro[4.5]decan-4-amine] |
| 18 | 260 | C[C@@H]1OCC2(CCN(c3ncc(Sc4ccnc5c(-n6cncn6)cccc45)c4nccn34)CC2)[C@@H]1N [Example 109, (3S,4S)-8-(8-((8-(1H-1,2,4-triazol-1-yl)quinolin-4-yl)thio)imidazo[1,2-c]pyrimidin-5-yl)-3-methyl-2-oxa-8-azaspiro[4.5]decan-4-amine] |
| 190 | 930 | C[C@@H]1OCC2(CCN(c3ncc(Sc4ccnc5c(C(=O)O)cccc45)c4nccn34)CC2)[C@@H]1N [Example 110, 4-((5-((3S,4S)-4-amino-3-methyl-2-oxa-8-azaspiro[4.5]decan-8-yl)imidazo[1,2-c]pyrimidin-8-yl)thio)quinoline-8-carboxylic acid] |
